Patent publication US20090170826A1, “Acid Addition Salt of Optically Active Dihydropyridine Derivative” (Daiichi Sankyo Company ,Limited, priority 2005, published 2009)

How the values were obtained:
[1] = Thermal stability test (residual rate of compound (I) by HPLC); format: physicochemical
Protocol: The test compound was placed in a glass bottle and allowed to stand under the following conditions (1) and (2).
(1): Closed state, 60° C.;
The measurement conditions in high performance liquid chromatography are as follows.
Column: L-column ODS [4.6 mm×250 mm, manufactured by Chemicals Evaluation and Research Institute, Japan]
Column temperature: 40° C.
Detection wavelength: 220 nm
The residual rate (%) was calculated by the following formula.
The residual rate (%)=[1−(sum of peak area percentages of impurities and decomposed products)]×100

[2] = Absorbability test in dog; format: in vivo; conditions: fasted male beagle, ranitidine pretreated, oral 10 mg/body in 0.5% methyl cellulose, plasma; for AUC(0-t): read-out: AUC0-24 h
Protocol: Ranitidine (2.5 mg/kg) was intramuscularly injected to the posterior region of thigh of a fasted male beagle (body weight: about 10 kg, n=6) to make the intragastric pH acidic 30 minutes before, immediately before and 30 minutes after administration of the test compound. The test compound was suspended in a 0.5% methyl cellulose solution at a dose of 10 mg/body and orally administered. About 3 ml of blood was collected from the median antebrachial vein using a heparin-treated glass syringe 0.5, 1, 2, 3, 4, 6, 8 and 24 hours after the administration. The collected blood was centrifuged to obtain plasma which was cryopreserved at −20° C. until measurement of the concentration of the test compound. One hundred μl of thawed plasma was mixed with 300 μl of an internal standard solution [a methanol solution of the d3-compound (Ia), 5 ng/ml] and centrifuged. The supernatant was filtered through a filter and the filtrate was analyzed by LC/MS/MS.
A calibration curve was prepared by the same operation as above using each 100 μl of a calibration curve standard solution [a methanol solution of the compound (Ia), 0.5-400 ng/ml] which had been adjusted to respective concentrations in place of 100 μl of dog plasma.
The LC/MS/MS analysis conditions are shown below.
The area under the concentration in plasma-time curve (AUC0-24h) and the maximum concentration in plasma (Cmax) as pharmacokinetic parameters indicative of drug absorbability were calculated from the results obtained according to the aforementioned method using the compounds of Example 1, Example 2 (2C) and Comparative Example 4 as test compounds.

[3] = Condition (1): closed state, 60° C., 1 month
[4] = Condition (1): closed state, 60° C., 1 week
[5] = Condition (1): closed state, 60° C., time 0
[6] = Condition (2): non-closed state, 40° C., humidity 75%, 1 week
[7] = Condition (2): non-closed state, 40° C., humidity 75%, time 0
[8] = Condition (1): closed state, 60° C., 3 months
[9] = Condition (2): non-closed state, 40° C., humidity 75%, 1 month

Row | Molecule | Residual rate of Compound (I) (%) [1, 3] [%] | Residual rate of Compound (I) (%) [1, 4] [%] | Residual rate of Compound (I) (%) [1, 5] [%] | Residual rate of Compound (I) (%) [1, 6] [%] | Residual rate of Compound (I) (%) [1, 7] [%] | Residual rate of Compound (I) (%) [1, 8] [%] | Residual rate of Compound (I) (%) [1, 9] [%] | Cmax [2] [ng/mL] | AUC(0-t) [2] [ng·h/mL] | other results
1 | CC1=C(C(=O)OC(C)C)[C@@H](c2cccc([N+](=O)[O-])c2)C(C(=O)OC2CN(C(c3ccccc3)c3ccccc3)C2)=C(N)N1.O=S(=O)(O)O [Comparative Example 2, (R)-2-Amino-1,4-dihydro-6-methyl-4-(3-nitrophenyl)-3,5-pyridinedicarboxylic Acid 3-(1-diphenylmethylazetidin-3-yl) Ester 5-isopropyl Ester Monosulfate, reference compound] | 24.3 | 25.0 | 93.1 | 8.9 | 93.1 |  |  |  |  | 
2 | CC1=C(C(=O)OC(C)C)[C@@H](c2cccc([N+](=O)[O-])c2)C(C(=O)OC2CN(C(c3ccccc3)c3ccccc3)C2)=C(N)N1.CS(=O)(=O)O.CS(=O)(=O)O [Comparative Example 3, (R)-2-Amino-1,4-dihydro-6-methyl-4-(3-nitrophenyl)-3,5-pyridinedicarboxylic Acid 3-(1-diphenylmethylazetidin-3-yl) Ester 5-isopropyl Ester Dimethanesulfonate, reference compound] | 90.0 | 93.2 | 99.3 | 0.1 | 99.3 | 84.1 | 0.0 |  |  | 
3 | CC1=C(C(=O)OC(C)C)[C@@H](c2cccc([N+](=O)[O-])c2)C(C(=O)OC2CN(C(c3ccccc3)c3ccccc3)C2)=C(N)N1 [Comparative Example 4, (R)-2-Amino-1,4-dihydro-6-methyl-4-(3-nitrophenyl)-3,5-pyridinedicarboxylic Acid 3-(1-diphenylmethylazetidin-3-yl) Ester 5-isopropyl Ester, reference compound] |  |  |  |  |  |  |  | 161 | 1500 | 
4 | CC1=C(C(=O)OC(C)C)[C@@H](c2cccc([N+](=O)[O-])c2)C(C(=O)OC2CN(C(c3ccccc3)c3ccccc3)C2)=C(N)N1.Cl.Cl.O.O [Example 1, (R)-2-Amino-1,4-dihydro-6-methyl-4-(3-nitro-phenyl)-3,5-pyridinedicarboxylic Acid 3-(1-diphenylmethyl-azetidin-3-yl) Ester 5-isopropyl Ester Dihydrochloride dihydrate] | 95.3 | 96.6 | 99.4 | 97.8 | 99.4 | 92.0 | 96.0 | 168 | 1660 | Residual rate of Compound (I) (%) ([1]; Condition (2): non-closed state, 40° C., humidity 75%, 3 months): 94.1%
5 | Br.Br.CC1=C(C(=O)OC(C)C)[C@@H](c2cccc([N+](=O)[O-])c2)C(C(=O)OC2CN(C(c3ccccc3)c3ccccc3)C2)=C(N)N1.O.O [Example 2, (R)-2-Amino-1,4-dihydro-6-methyl-4-(3-nitro-phenyl)-3,5-pyridinedicarboxylic Acid 3-(1-diphenylmethyl-azetidin-3-yl) Ester 5-isopropyl Ester Dihydrobromide dihydrate] | 94.2 |  | 99.8 | 95.5 | 99.8 |  | 92.1 | 230 | 1930 | Residual rate of Compound (I) (%) ([1]; Condition (1): closed state, 60° C., 1 month, listed as Example 2A, Dihydrobromide dihydrate): 99.7%; Residual rate of Compound (I) (%) ([1]; Condition (1): closed state, 60° C., 1 week, listed as Example 2A, Dihydrobromide dihydrate): 99.8%; Residual rate of Compound (I) (%) ([1]; Condition (1): closed state, 60° C., 1 week, listed as Example 2C, Dihydrobromide dihydrate): 95.0%; Residual rate of Compound (I) (%) ([1]; Condition (1): closed state, 60° C., 3 months, listed as Example 2A, Dihydrobromide dihydrate): 99.7%; Residual rate of Compound (I) (%) ([1]; Condition (1): closed state, 60° C., 3 months, listed as Example 2C, Dihydrobromide dihydrate): 94.5%; Residual rate of Compound (I) (%) ([1]; Condition (1): closed state, 60° C., time 0, listed as Example 2C, Dihydrobromide dihydrate): 99.1%; Residual rate of Compound (I) (%) ([1]; Condition (2): non-closed state, 40° C., humidity 75%, 1 month, listed as Example 2A, Dihydrobromide dihydrate): 99.6%; Residual rate of Compound (I) (%) ([1]; Condition (2): non-closed state, 40° C., humidity 75%, 1 week, listed as Example 2A, Dihydrobromide dihydrate): 99.7%; Residual rate of Compound (I) (%) ([1]; Condition (2): non-closed state, 40° C., humidity 75%, 3 months, listed as Example 2A, Dihydrobromide dihydrate): 99.4%; Residual rate of Compound (I) (%) ([1]; Condition (2): non-closed state, 40° C., humidity 75%, 3 months, listed as Example 2C, Dihydrobromide dihydrate): 90.6%; Residual rate of Compound (I) (%) ([1]; Condition (2): non-closed state, 40° C., humidity 75%, time 0, listed as Example 2C, Dihydrobromide dihydrate): 99.1%
6 | (R)-2-Amino-1,4-dihydro-6-methyl-4-(3-nitrophenyl)-3,5-pyridinedicarboxylic acid 3-(1-diphenylmethylazetidin-3-yl) ester 5-isopropyl Ester Disulfate Dihydrate [Comparative Example 1, reference compound] | 0.4 | 68.0 | 99.3 | 96.8 | 99.3 |  | 84.4 |  |  | 
